The target in one test is T1, Endothelial lipase (EL) (Homo sapiens, UniProt Q9Y5X9).
T1 construct: HT-1080 cells that were transformed using RAGE technology (Athersys) to overexpress endogenous EL; endogenous in cells; conditioned medium used
T1 sequence (Q9Y5X9 21-500): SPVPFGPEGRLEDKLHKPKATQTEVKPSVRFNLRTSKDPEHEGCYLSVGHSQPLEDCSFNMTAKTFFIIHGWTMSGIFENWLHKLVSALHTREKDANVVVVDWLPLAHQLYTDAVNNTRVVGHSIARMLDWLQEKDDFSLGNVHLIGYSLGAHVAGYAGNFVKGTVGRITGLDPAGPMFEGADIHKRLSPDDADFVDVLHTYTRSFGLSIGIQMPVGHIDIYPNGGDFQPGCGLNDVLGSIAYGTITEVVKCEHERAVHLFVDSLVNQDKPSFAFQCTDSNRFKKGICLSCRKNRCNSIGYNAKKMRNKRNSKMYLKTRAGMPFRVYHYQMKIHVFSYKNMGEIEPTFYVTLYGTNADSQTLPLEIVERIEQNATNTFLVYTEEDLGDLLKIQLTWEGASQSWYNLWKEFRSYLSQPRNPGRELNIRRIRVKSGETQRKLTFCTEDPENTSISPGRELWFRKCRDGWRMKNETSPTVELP
Kind of test: Endothelial lipase (EL) enzymatic assay, fluorescent substrate A10070 in DMPG vesicles. The format is biochemical. The conditions noted are these: EL from conditioned media of HT-1080 cells; compound preincubated 30 min at 37° C; read-out: EL IC50. An outline of the steps:
(§1)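 Compounds were preincubated with enzyme for 30 min at 37° C before FRET-substrate vesicles (A10070 in DMPG, 0.11 mole fraction) were added. Reaction rates were obtained from the 300–900 sec slope of fluorescence at 490/530 nm.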

For another test, the target named is T2, hepatic lipase (HL) (Homo sapiens, UniProt P11150).
T2 construct: made in house; host or cells: COS cells (conditioned medium, partially purified)
T2 sequence (P11150 23-499): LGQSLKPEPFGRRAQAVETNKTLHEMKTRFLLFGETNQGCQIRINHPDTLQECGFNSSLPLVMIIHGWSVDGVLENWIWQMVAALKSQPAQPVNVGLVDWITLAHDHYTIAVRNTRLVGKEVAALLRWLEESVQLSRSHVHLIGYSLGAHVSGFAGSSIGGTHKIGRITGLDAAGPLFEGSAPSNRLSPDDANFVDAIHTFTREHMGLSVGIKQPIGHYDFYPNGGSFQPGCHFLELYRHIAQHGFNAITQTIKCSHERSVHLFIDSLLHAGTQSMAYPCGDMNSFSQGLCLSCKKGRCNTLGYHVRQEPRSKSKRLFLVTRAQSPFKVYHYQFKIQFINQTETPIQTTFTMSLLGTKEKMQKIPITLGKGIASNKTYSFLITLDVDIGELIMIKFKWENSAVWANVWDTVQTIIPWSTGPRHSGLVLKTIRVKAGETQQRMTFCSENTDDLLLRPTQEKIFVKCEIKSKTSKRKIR
The test is described as follows: Hepatic lipase (HL) enzymatic assay, fluorescent substrate A10070 in DMPG vesicles. Particulars: HL partially purified from conditioned media of COS cells; compound preincubated 30 min at 37° C; read-out: HL IC50. The format is biochemical. The essentials: as §1

Consider 17 molecules from patent US20140011799A1 (Bristol-Myers Squibb Company, priority 2012, published 2014).

The structures appear in SMILES notation. Some results are limits rather than exact numbers.

`Cc1noc(C)c1-c1ccc2nc(C(c3nnc(CNS(N)(=O)=O)o3)S(C)(=O)=O)sc2c1` (stereo not shown) [Example 117, N-[(5-{[6-(3,5-dimethyl-1,2-oxazol-4-yl)-1,3-benzothiazol-2-yl](methylsulfonyl)methyl}-1,3,4-oxadiazol-2-yl)methyl] sulfuric diamide]: the IC50 on Endothelial lipase (EL) was found to be 24 nM; on hepatic lipase (HL), 230 nM.

In the case of `CCOCC(=O)NCc1nnc(C(c2nc3ccc(-c4ccccc4)cc3s2)S(C)(=O)=O)o1` (stereo not shown) [Example 157, 2-ethoxy-N-((5-((methylsulfonyl)(6-phenyl-1,3-benzothiazol-2-yl)methyl)-1,3,4-oxadiazol-2-yl)methyl)acetamide], the results for the IC50 at Endothelial lipase (EL) and at hepatic lipase (HL) were 223 nM and 34 nM, respectively.

With `CS(=O)(=O)C(c1nnc(CC2SC(=O)NC2=O)o1)c1nc2ccc(-c3ccc(=O)n(Cc4ccccc4)c3)cc2s1` (stereo not shown) [Example 101, 5-((5-((6-(1-benzyl-6-oxo-1,6-dihydro-3-pyridinyl)-1,3-benzothiazol-2-yl)(methylsulfonyl)methyl)-1,3,4-oxadiazol-2-yl)methyl)-1,3-thiazolidine-2,4-dione], the IC50 at Endothelial lipase (EL) is below 10 nM; at hepatic lipase (HL) it was 160 nM.

Take `NCCS(=O)(=O)C(c1nnc(CNS(N)(=O)=O)o1)c1nc2ccc(-c3ccc(C(=O)N4CCOCC4)cc3)cc2s1` (stereo not shown) [Example 183, N-{[5-([(2-Aminoethyl)sulfonyl]{6-[4-(4-morpholinylcarbonyl)phenyl]-1,3-benzothiazol-2-yl}methyl)-1,3,4-oxadiazol-2-yl]methyl}sulfuric diamide]: the IC50 at Endothelial lipase (EL) came out at 14 nM; at hepatic lipase (HL), 178 nM.

In the case of `COCCS(=O)(=O)C(c1nnc(CNS(N)(=O)=O)o1)c1nc2ccc(-c3cccc(C(=O)N4CCN(C)CC4)c3)cc2s1` (stereo not shown) [Example 200, N-((5-(((2-methoxyethyl)sulfonyl)(6-(3-((4-methyl-1-piperazinyl)carbonyl)phenyl)-1,3-benzothiazol-2-yl)methyl)-1,3,4-oxadiazol-2-yl)methyl)sulfamide], the half-maximal inhibitory concentration (IC50) at Endothelial lipase (EL) is below 10 nM; at hepatic lipase (HL), 201 nM.

Regarding `CC(C)NC(=O)c1cccc(-c2ccc3nc(C(c4nnc(CNS(N)(=O)=O)o4)S(C)(=O)=O)sc3c2)c1` (stereo not shown) [Example 259, 3-{2-[methanesulfonyl({5-[(sulfamoylamino)methyl]-1,3,4-oxadiazol-2-yl})methyl]-1,3-benzothiazol-6-yl}-N-(propan-2-yl) benzamide], the results for the IC50 on Endothelial lipase (EL) and at hepatic lipase (HL) were 8 nM and 37 nM, respectively.

On to `COC1CN(C(=O)c2cccc(-c3ccc4nc(C(c5nnc(CNS(N)(=O)=O)o5)S(C)(=O)=O)sc4c3)c2)C1` (stereo not shown) [Example 267, N-({5-[methanesulfonyl({6-[3-(3-methoxyazetidine-1-carbonyl)phenyl]-1,3-benzothiazol-2-yl})methyl]-1,3,4-oxadiazol-2-yl}methyl)aminosulfonamide], for which the IC50 at Endothelial lipase (EL) is 14 nM; at hepatic lipase (HL) it was 41 nM.

Consider `COCCS(=O)(=O)C(c1nnc(CNS(N)(=O)=O)o1)c1nc2ccc(-c3ccccc3)cc2s1` (stereo not shown) [Example 119, N-[(5-{[(2-methoxyethyl)sulfonyl](6-phenyl-1,3-benzothiazol-2-yl)methyl}-1,3,4-oxadiazol-2-yl)methyl]sulfuric diamide], for which the half-maximal inhibitory concentration (IC50) at Endothelial lipase (EL) and on hepatic lipase (HL) was below 10 nM throughout.

Consider `CN1CCN(C(=O)c2cccc(-c3ccc4nc(C(c5nnc(CNS(N)(=O)=O)o5)S(=O)(=O)CCC(F)(F)F)sc4c3)c2)CC1` (stereo not shown) [Example 201, N-((5-((6-(3-((4-methyl-1-piperazinyl)carbonyl)phenyl)-1,3-benzothiazol-2-yl)((3,3,3-trifluoropropyl)sulfonyl)methyl)-1,3,4-oxadiazol-2-yl)methyl)sulfamide], for which the results for the IC50 at Endothelial lipase (EL) and on hepatic lipase (HL) were below 10 nM and 365 nM, respectively.

Consider `CC1(Cc2nnc(C(c3nc4ccc(-c5cccc(C(=O)N6CCOCC6)c5)cc4s3)S(C)(=O)=O)o2)NC(=O)NC1=O` (stereo not shown) [Example 210, 5-({5-[methanesulfonyl({6-[3-(morpholine-4-carbonyl)phenyl]-1,3-benzothiazol-2-yl})methyl]-1,3,4-oxadiazol-2-yl}methyl)-5-methyl-imidazolidine-2,4-dione], for which the 50% inhibitory concentration (IC50) came out at 9 nM on Endothelial lipase (EL) and 365 nM at hepatic lipase (HL).

On to `CC1(Cc2nnc(C(c3nc4ccc(-c5cccc(C(=O)N6CC(F)C6)c5)cc4s3)S(C)(=O)=O)o2)NC(=O)NC1=O` (stereo not shown) [Example 206, 5-{[5-({6-[3-(3-fluoroazetidine-1-carbonyl)phenyl]-1,3-benzothiazol-2-yl} (methanesulfonyl)methyl)-1,3,4-oxadiazol-2-yl]methyl}-5-methyl-imidazolidine-2,4-dione], for which the results for the IC50 on Endothelial lipase (EL) and at hepatic lipase (HL) were 16 nM and 125 nM, respectively.

Regarding `CN(C)C(=O)c1ccc(-c2ccc3nc(C(c4nnc(CNS(=O)(=O)NC(=O)OC(C)(C)C)o4)S(=O)(=O)Cc4ccccc4)sc3c2)cc1Cl` (stereo not shown) [Example 141, tert-butyl (((5-((benzylsulfonyl)(6-(3-chloro-4-(dimethylcarbamoyl)phenyl)-1,3-benzothiazol-2-yl)methyl)-1,3,4-oxadiazol-2-yl)methyl)sulfamoyl) carbamate], the IC50 at Endothelial lipase (EL) was below 10 nM; on hepatic lipase (HL) it was 50 nM.

Consider `NS(=O)(=O)NCc1nnc(C(c2nc3ccc(-c4cc(F)cc(Cl)c4)cc3s2)S(=O)(=O)Cc2ccccc2)o1` (stereo not shown) [Example 144, N-((5-((benzylsulfonyl)(6-(3-chloro-5-fluorophenyl)-1,3-benzothiazol-2-yl)methyl)-1,3,4-oxadiazol-2-yl)methyl) sulfamide], for which the IC50 at Endothelial lipase (EL) and on hepatic lipase (HL) was below 10 nM in each case.

`COC1CN(C(=O)c2cccc(-c3ccc4nc(C(c5nnc(CC6(C)NC(=O)NC6=O)o5)S(C)(=O)=O)sc4c3)c2)C1` (stereo not shown) [Example 209, 5-({5-[methanesulfonyl({6-[3-(3-methoxyazetidine-1-carbonyl)phenyl]-1,3-benzothiazol-2-yl})methyl]-1,3,4-oxadiazol-2-yl}methyl)-5-methyl-imidazolidine-2,4-dione]: the IC50 amounted to 18 nM on Endothelial lipase (EL) and 227 nM on hepatic lipase (HL).

On to `COCc1ccc(-c2ccc3nc(C(c4nnc(CNS(N)(=O)=O)o4)S(=O)(=O)Cc4ccc(OC(F)(F)F)cc4)sc3c2)cc1` (stereo not shown) [Example 237, N-{[5-({6-[4-(methoxymethyl)phenyl]-1,3-benzothiazol-2-yl}[4-(trifluoromethoxy)phenyl]methanesulfonylmethyl)-1,3,4-oxadiazol-2-yl]methyl} aminosulfonamide], for which the IC50 at Endothelial lipase (EL) worked out at 1 nM; at hepatic lipase (HL) it was 2 nM.

Take `CS(=O)(=O)C(c1nnc(C[C@@H]2NS(=O)(=O)NC2=O)o1)c1nc2cc(F)c(-c3ccccc3)cc2s1` (stereo partly drawn) [Example 168, (4S)-4-((5-((5-fluoro-6-phenyl-1,3-benzothiazol-2-yl)(methylsulfonyl)methyl)-1,3,4-oxadiazol-2-yl)methyl)-1,2,5-thiadiazolidin-3-one 1,1-dioxide]: the IC50 on Endothelial lipase (EL) was below 10 nM; on hepatic lipase (HL) it was 19 nM.

For `CS(=O)(=O)C(c1nnc(C[C@H]2NS(=O)(=O)NC2=O)o1)c1nc2ccc(-c3ccc(C(=O)N4CCOCC4)cc3)cc2s1` (stereo partly drawn) [Example 110, (4R)-4-((5-((methylsulfonyl) (6-(4-(4-morpholinylcarbonyl)phenyl)-1,3-benzothiazol-2-yl)methyl)-1,3,4-oxadiazol-2-yl)methyl)-1,2,5-thiadiazolidin-3-one 1,1-dioxide], the IC50 at Endothelial lipase (EL) was 19 nM; on hepatic lipase (HL), 3240 nM.

In general, IC50 refers to the concentration needed to halve the response being measured.
